Laboratory results as given in US20050226919A1, “Device for transdermal administration for the treatment of urinary tract disorders” (priority 2001, published 2005).

Assays:
[1] = Skin permeation across hairless mouse skin (horizontal diffusion cell); assay type: in vitro ADME
Protocol: (§1) The skin permeation of KMD 3213 was also evaluated on hairless mouse skin and human skin. Human skin penetration assays were performed as described by Tanojo et al. in Journal of Controlled Release 45 (1997), 41-47. The concentration of KMD 3213 was measured by HPLC with a Symetry Shield RP-8, 3.9*150 mm 5 μm column; T=35° C.; eluent: water/acetonitrile/trifluoracetic acid 800/200/1 (v/v/v); dectetion UV at 225 nm; flux rate 1.5 ml/min; injection volume: 100 μl at 23° C.
The flux measurements on hairless mouse skin were conducted using a TTS area of 2.55 cm^2 fixed on mouse abdominal and back skin in a horizontal diffusion cell. Immediately thereafter the acceptor chamber of the cell was filled with phosphate buffer solution (0.066 molar) previously adjusted to 32±0.5° C. and pH 6.2, in an air-bubble free state, and the release medium thermostatted to 32±0.5° C. At the time of sampling (after 3, 6, 24 and 48 hours) the release medium is exchanged with fresh medium thermostatted at 32±0.5° C. KMD 3213 was measured with HPLC as explained above.

[2] = target: T1, α1a-receptor (Homo sapiens, UniProt P35348); settings: Murata et al., Br. J. Pharmacol. (1999) 127, 19-26; cited from earlier work
T1 sequence (P35348 1-466): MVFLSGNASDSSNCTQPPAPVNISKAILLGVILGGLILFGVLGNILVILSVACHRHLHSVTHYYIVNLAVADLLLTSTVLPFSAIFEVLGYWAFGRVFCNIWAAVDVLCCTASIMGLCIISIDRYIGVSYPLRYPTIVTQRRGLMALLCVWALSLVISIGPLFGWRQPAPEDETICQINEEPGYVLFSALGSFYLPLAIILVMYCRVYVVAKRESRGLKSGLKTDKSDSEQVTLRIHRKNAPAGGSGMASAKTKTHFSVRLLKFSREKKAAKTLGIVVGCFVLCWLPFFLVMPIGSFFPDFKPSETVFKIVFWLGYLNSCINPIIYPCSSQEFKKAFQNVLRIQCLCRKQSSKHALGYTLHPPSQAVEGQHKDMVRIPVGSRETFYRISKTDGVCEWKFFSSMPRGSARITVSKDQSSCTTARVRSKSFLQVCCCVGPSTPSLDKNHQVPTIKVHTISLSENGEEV

[3] = Skin permeation across human skin (in vitro penetration assay); assay type: in vitro ADME
Protocol: as §1

In the case of `C[C@H](Cc1cc2c(c(C(N)=O)c1)N(CCCO)CC2)NCCOc1ccccc1OCC(F)(F)F` [KMD 3213, (-)-(R)-1-(3-hydroxypropyl)-5-[2-[[2-[2-(2,2,2-trifluoroethoxy)phenoxy]ethyl]amino]propyl]indoline-7-carboxamide], the “steady state skin permeation rate on hairless mouse skin” value ([1]; hairless mouse skin, TTS area 2.55 cm^2, phosphate buffer pH 6.2, 32°C) is listed as “approximately 2.7 mg/20 cm^2 per day”, the “steady state flux rate through mouse skin” value ([1]; mouse skin, from the devices of the invention) is listed as 2.7 mg/day and the α-adrenoceptor subtype specificity [2] is listed as “binding specifically to the α1a-receptor”. The “steady state flux rate on human skin” value [3] was 2.9 mg/20 cm^2 per day.
